Data on twelve compounds can be found in PubChem BioAssay (NCI).

Where “and” joins values, the source holds several entries; their conditions need not be identical. Identical values can stand only once.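 Five compound concentrations were applied to cells in 96-well plates for 48 hours; endpoints were derived by simple linear interpolation of the resulting dose-response curve. GI50 = concentration required for 50% inhibition of growth. Definition used: TGI = concentration required for complete inhibition of growth.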

Among the test systems are CCRF-CEM leukemia; HCT-15 colon; IGROV1 ovarian; MCF7 breast; MDA-MB-435; OVCAR-3 ovarian; PC-3 prostate; SF-268 CNS; SF-295 CNS; UO-31 renal.
Common to all, as to assay: inhibition of tumour cell growth, NCI panel, 48 h

With `N=C(N)C(N=Nc1ccccc1)C(=N)N` (stereo not drawn), the TGI in the test with CCRF-CEM leukemia is 40.6 µM; with HCT-15 colon, greater than 100 µM; in the test on IGROV1 ovarian it was greater than 100 µM; with MCF7 breast, greater than 100 µM; with MDA-MB-435, 42.7 µM; in the test with OVCAR-3 ovarian, greater than 100 µM. Also, the TGI with PC-3 prostate, in the test with SF-268 CNS, in the test with SF-295 CNS and in the test with UO-31 renal was greater than 100 µM in each case.

In the case of `O=C1c2ccccc2-c2ccc(O)cc21`, the TGI in the test with HCT-15 colon amounted to 49.6 µM; in the test on IGROV1 ovarian it was 35.9 µM; with MCF7 breast it was 67.2 µM; with MDA-MB-435 it was 59.6 µM; with PC-3 prostate it was 42.9 µM; in the test with SF-268 CNS it was 47.2 µM. The TGI is 96.2 µM in the test on SF-295 CNS and 32.1 µM in the test on UO-31 renal.

As to `COC1(OC)C[C@H](C)[C@@]23O[C@]24c2cc(O)c5c(c2N[C@H]3C#C/C=C\C#C[C@]14O)C(=O)c1ccccc1C5=O`, the GI50 with CCRF-CEM leukemia is 5 nM; with HCT-15 colon, 11.8 nM; with MDA-MB-435, 18.4 nM; in the test on PC-3 prostate, 163 nM; in the test on SF-268 CNS it was 1.93 nM. Moreover, the TGI is 0.00572 µM and 0.0539 µM in the test on CCRF-CEM leukemia; 0.24 µM and 0.543 µM with HCT-15 colon; 0.16 µM in the test with IGROV1 ovarian; 0.139 µM and 0.175 µM in the test with MDA-MB-435; 0.77 µM in the test on OVCAR-3 ovarian; 0.182 µM with PC-3 prostate. Besides, the values for the TGI in the test with SF-295 CNS and with UO-31 renal were 0.0076 µM and 0.0176 µM, respectively.

On to `CCC(C)C(NC(=O)C(CCCCN)NC(=O)C(NC(=O)C(CCC(N)=O)NC(=O)C(CCCNC(=N)N)NC(C)=O)C(C)CC)C(=O)NC(Cc1c[nH]c2ccccc12)C(=O)NC(Cc1ccccc1)C(=O)NC(CCC(N)=O)C(=O)NC(CC(N)=O)C(=O)NC(CCCNC(=N)N)C(=O)NC(CCCNC(=N)N)C(=O)NC(CCSC)C(=O)NC(CCCCN)C(=O)NC(Cc1c[nH]c2ccccc12)C(=O)NC(CCCCN)C(=O)NC(CCCCN)C(N)=O` (stereo not drawn), for which the TGI with CCRF-CEM leukemia, in the test on HCT-15 colon, with IGROV1 ovarian, in the test with MCF7 breast, in the test on MDA-MB-435 and in the test with OVCAR-3 ovarian was greater than 50 µM throughout. The TGI in the test on PC-3 prostate, with SF-268 CNS and with SF-295 CNS was greater than 50 µM each time.

For the compound `O=C1OC(c2ccccc2)=N/C1=C/c1cccs1`, the TGI is 75.1 µM in the test with CCRF-CEM leukemia; greater than 100 µM with HCT-15 colon; greater than 100 µM with IGROV1 ovarian; greater than 100 µM in the test with MCF7 breast; greater than 100 µM in the test with MDA-MB-435; greater than 100 µM with OVCAR-3 ovarian. For the same compound, the TGI in the test with PC-3 prostate, with SF-268 CNS and in the test with SF-295 CNS was greater than 100 µM in each case.

`CC(=O)C1=C(O)C2(O)C(=O)c3c(c(C)c4ccc(C)c(O)c4c3O)CC2C(N)C1=O` (stereo not drawn): the TGI with CCRF-CEM leukemia was 18.6 µM; with HCT-15 colon it was 9.99 µM; with IGROV1 ovarian, 13 µM; in the test with MCF7 breast, 18.3 µM; in the test on MDA-MB-435 it was 4.86 µM; in the test on OVCAR-3 ovarian it was 13.2 µM. Moreover, the TGI is 11.7 µM with PC-3 prostate, 13.6 µM in the test with SF-268 CNS, 5.6 µM with SF-295 CNS and 11.1 µM in the test on UO-31 renal. The values for the GI50 in the test with MCF7 breast, in the test on MDA-MB-435 and in the test on PC-3 prostate were 2840 nM, 1110 nM and 754 nM, respectively.

As to `Cc1nc(Cl)c(C)c(Cl)n1`, the TGI in the test on CCRF-CEM leukemia is greater than 100 µM; with HCT-15 colon, greater than 100 µM; in the test with IGROV1 ovarian, 34.5 µM; in the test with MCF7 breast it was greater than 100 µM; in the test on MDA-MB-435 it was greater than 100 µM; with OVCAR-3 ovarian, greater than 100 µM. Moreover, the TGI in the test with PC-3 prostate, with SF-268 CNS and with SF-295 CNS was greater than 100 µM each time.

Consider `S=C(NCCCCCCNC(=S)Nc1c2ccccc2nc2ccccc12)Nc1c2ccccc2nc2ccccc12`, for which the TGI with CCRF-CEM leukemia, with HCT-15 colon, in the test with IGROV1 ovarian, in the test on MCF7 breast, in the test on OVCAR-3 ovarian and with SF-268 CNS was greater than 100 µM throughout. Moreover, the TGI in the test with SF-295 CNS and with UO-31 renal was greater than 100 µM each time.

Regarding `O=C1c2scnc2-c2nccc3c2c1nc1ccccc13`, the TGI was greater than 100 µM in the test on CCRF-CEM leukemia; 1.28 µM in the test with HCT-15 colon; greater than 100 µM in the test on IGROV1 ovarian; 1.03 µM with MCF7 breast; 0.307 µM in the test on MDA-MB-435; greater than 100 µM in the test on OVCAR-3 ovarian. The TGI is greater than 100 µM with PC-3 prostate, greater than 100 µM in the test on SF-268 CNS, 3.6 µM with SF-295 CNS and 2.74 µM with UO-31 renal.

As to `N#CCc1[nH]nc2nc(SCc3ccccc3)nc(N3CCCCC3)c12`, the TGI is 33.8 µM in the test with CCRF-CEM leukemia; greater than 100 µM in the test on HCT-15 colon; 40.4 µM in the test on MCF7 breast; 35 µM in the test on MDA-MB-435; 37.4 µM in the test with OVCAR-3 ovarian; 34 µM with PC-3 prostate. Moreover, the TGI with SF-268 CNS stood at 36.7 µM; with SF-295 CNS, 35.3 µM; in the test on UO-31 renal, 35.9 µM.

On to `C[N+]1(C)C2CCC1CC(OC(=O)C(CO)c1ccccc1)C2` (stereo not drawn), for which the TGI in the test on CCRF-CEM leukemia, with HCT-15 colon, in the test on IGROV1 ovarian, with MCF7 breast, with MDA-MB-435 and in the test with OVCAR-3 ovarian was greater than 100 µM throughout. The TGI with PC-3 prostate, with SF-268 CNS, in the test with SF-295 CNS and with UO-31 renal was greater than 100 µM throughout.

Take `OC1C=C2C3CN(Cc4cc5c(cc43)OCO5)[C@H]2C[C@@H]1O` (stereo partly drawn): the TGI in the test on CCRF-CEM leukemia was 7.04 µM; in the test with HCT-15 colon it was 34.1 µM; in the test on IGROV1 ovarian it was greater than 100 µM; in the test with MCF7 breast, 22.2 µM; with MDA-MB-435 it was 24.7 µM; with OVCAR-3 ovarian, greater than 100 µM. Further, the TGI was 22.6 µM in the test on PC-3 prostate, greater than 100 µM in the test with SF-268 CNS, greater than 100 µM with SF-295 CNS and 71.4 µM in the test with UO-31 renal.
